Source: publication PMC11607671, “Antiviral activity of cathelicidins against porcine epidemic diarrhea virus (PEDV): Mechanisms, and efficacy” (Virus Research, 2024)

How the values were obtained:
PEDV-GFP [1] = assay: Co-incubation antiviral assay of the extended AMP panel and of FL LL-37; assay type: cell-based, Porcine epidemic diarrhea virus; conditions: FC; for prevention of PEDV-GFP entry into Vero cells, extended AMP panel, in words: co-incubation with PEDV-GFP, 1 and 5 µM, 3 h, two independent experiments in duplicate, Fig. 5
Experimental: (§1) In order to determine the effect of AMPs on the infectivity of PEDV, Vero cells (5 × 10^5 per well) were seeded in 12-well plates and cultured overnight at 37 °C, 5% CO2. In a co-incubation of virus and AMPs experiments (Fig. 2A), the mixture of AMPs (0–10 µM) and PEDV-GFP (MOI= 0.3) in a 1 mL volume of DMEM (P/S + 10% FCS) was added to the cells and incubated at 37 °C. After 2 h, the supernatant was replaced with fresh DMEM (P/S + 10% FCS) and incubated for 24 h. Subsequently, the cells were washed 2 times with flow cytometry buffer (500 mL PBS+ 10 mL FCS+ 250 µL of 10% NaN3) and were imaged with an EVOS M5000 Imaging System for semi-quantitative determination of infectivity. Eventually, cells were carefully detached by 2.5% trypsin, stained with ViaKrome 808 fixable viability dye (1:1000), and incubated for 30 min at 4 °C. Following washing, the cells were fixed using 50 µL of 4% PFA for 10 min, and a minimum of 1 × 10^5 cells were acquired using the CytoFLEX LX Flow Cytometer (FC)(Beckman Coulter, USA). Data was analyzed using FlowJo software v.10.6 (Flowjo LCC, Ashland, OR, USA).
This extended panel of AMPs encompassed chicken-derived peptides (D-CATH-2, l-CATH-2), mouse-derived peptide (CRAMP), horse-derived peptides (eCATH-1, eCATH-3), parrot-derived peptides (ER2, ER3, AG3), and synthetic peptides (CR165, CR174), all of which were readily accessible within our laboratory. As previously described, these AMPs were co-incubated with PEDV.
Fig. 5 Antiviral effects of a diverse group of AMPs on PEDV infection. Vero cells were incubated for 3 h with a combination of PEDV-GFP and AMPs, as described previously. FC was utilized to assess the inhibitory impact of AMPs.
Figure S4. The antiviral activity of FL LL-37 (fluorogenic LL-37 ) and unlabeled LL-37. Peptides were co-incubated at 1 and 5 µM with PEDV and added to Vero cells for 3 h, followed by FC analysis to examine the infectivity.

PEDV [2] = assay: Peptide-virus interaction assay with Capto Core 700 beads; assay type: cell-based, Porcine epidemic diarrhea virus; conditions: Fig. 8
Experimental: In order to determine if CATH-B1 and LL-37 physically interact with PEDV, Capto Core 700 beads (GE Healthcare Life Sciences, Chicago, IL, USA) were used to selectively eliminate unbound AMPs. PEDV were pre-incubated with or without CATH-B1/LL-37 in Opti-MEM medium, and Capto Core 700 beads were added, followed by a 1 h incubation at 4 °C while slowly rotating. After centrifugation, supernatants were collected and applied to the cells. To make sure the AMP was removed effectively, we tested samples with peptides but no virus using the same process. The collected supernatants were used to inoculate cells, and the number of infected cells was determined using the described method.
Fig. 8 Interactions between CATH-B1 and LL-37 with PEDV. CATH-B1/LL-37 were pre-incubated with the virus, and subsequently, the peptide and virus were separated using Capto Core beads. The supernatant containing the separated virus was then employed to infect Vero cells. […] The data is presented as the mean ± SEM of three independent experiments in duplicate, each with triplicate samples. **** p < 0.0001.

PEDV [3] = assay: Transmission electron microscopy of peptide-treated virus; parameters: species or system Porcine epidemic diarrhea virus; conditions: PEDV treated with 10 µM peptide, negative stain, Fig. 9; for effect on virus morphology / membrane (TEM): one minute at 37 °C
Experimental: PEDV was treated with CATH-B1, LL-37, PMAP-23, and PMAP-36 for one minute at 37 °C. Subsequently, 10 µL of the sample was placed onto a freshly carbon-coated copper grid. The grids were washed 3 times with PBS and then fixed with 1% glutaraldehyde (Sigma-Aldrich, St. Louis, MO, USA) in PBS for 10 min. Following this fixation, the grids were rinsed 2 times with PBS and 4 times with MilliQ water. They were stained for 5 min in Uranyl Acetate (pH 7) then briefly washed with methylcellulose/uranyl acetate (pH 4) and incubated for 5 min on ice. Finally, the grids were looped out of the solution and air-dried. The samples were subsequently examined in a JEM1010 (JEOL) equipped with a Veleta 2k × 2k CCD camera (EMSIS, Munster, Germany).
Fig. 9 The effect of AMPs on the morphology of the virus. PEDV (MOI=0.3), which was pre-incubated with peptides. TEM images were taken of PEDV alone (A–D), PEDV treated with 10 µM LL-37 (E-H), PEDV treated with 10 µM CATH-B1 (I-L), PEDV treated with 10 µM PMAP-23 (M, N), and PEDV treated with 10 µM PMAP-36 (O, P). […] Micrographs were captured with a pixel size of 0,5 nm and analyzed visually using ImageJ. The micrographs are representative of observations from three independent experiments. Scale bars represent 100 nm.

PEDV-GFP [4] = assay: Pre-incubation (pre-treatment) antiviral assay; assay type: cell-based, Porcine epidemic diarrhea virus; conditions: Vero cells treated 3 h with AMPs (0-10 µM), washed, then infected with PEDV-GFP MOI 0.3 for 2 h; FC; Fig. 6B, C
Experimental: The effect of AMPs on viral infectivity was also determined when they were added to Vero-cells before (pre-treatment) or after (post-treatment) infection. In the pre-treatment assay (Fig. 6A), Vero cells were treated with different concentrations of CATH-B1 and LL-37 peptides (ranging from 0 to 10 µM) for various durations (1, 2, 3, 4, and 24 h) at 37 °C. Subsequently, the cells were washed 2 times with PBS and infected with PEDV-GFP at an MOI of 0.3 for 2 h
In post-incubation assays (Fig. 7A), cells were initially exposed to the virus for 2 h, washed 2times with PBS and subsequently treated with AMPs for 3 h Both for pre- and post-infection assays, after the respective incubation periods, the cells were assessed using fluorescence microscopy and quantified using FC as described above.
Fig. 6 Effects of AMPs in pre-incubation assay. A) Experimental set-up of pre-incubation experiment. B) FC was employed to quantify the percentage of GFP-positive cells during pre-incubation. […] The reported values represent the mean ± SD derived from three independent experiments performed in triplicate. * p < 0.05; ** p < 0.01.

PEDV-GFP [5] = assay: Co-incubation antiviral assay, PEDV-GFP MOI=0.3, Vero cells (fluorescence microscopy and flow cytometry); assay type: cell-based, Porcine epidemic diarrhea virus
Experimental: as §1
Fig. 2 Effect of AMPs on the infectivity of PEDV (MOI=0.3). A) Experimental set-up of the ‘co-incubation assay’; Vero cells were subjected to 2 h exposure to a combination of AMPs and PEDV-GFP. Afterward, the supernatant was replaced, and the cells were incubated for an additional 24 h B) Fluorescent microscopy (20 × magnification) was performed to visualize the fluorescence signal of GFP in the presence of 1, 5, and 10 µM AMPs. The cell-only sample consists exclusively of cells while the no-peptide sample contains only PEDV-GFP, with no peptides present.
Fig. 3 Antiviral activity of AMPs as determined by flow cytometry (FC). A) The percentage of GFP-positive cells following a 2 h incubation with a combination of PEDV and AMPs. […] The values reported here depict the average ± SD derived from three independent experiments performed in duplicate. * p < 0.05; ** p < 0.01.

PEDV [6] = assay: Co-incubation antiviral assay, PEDV MOI=1, Vero cells; assay type: cell-based, Porcine epidemic diarrhea virus; conditions: PEDV MOI=1, co-incubation, Vero cells, FC; Fig. 4B
Experimental: as §1
Fig. 4 The inhibitory effect of AMPs on PEDV at MOI=1. A) Fluorescence microscopy image was captured at 20 × magnification to visualize the GFP fluorescence signal in Vero cells following co-incubation of AMPs and PEDV at MOI=1. B) The percentage of GFP-positive cells was determined by FC after 3 h co-incubation of PEDV and AMPs. C) The fluorescence intensity of GFP across three different concentrations of LL-37 was illustrated through the FC histogram. […] The reported values in 4A represent the mean ± SD of three independent experiments performed in duplicate **** p < 0.0001.

“ISRLAGLLRKGGEKIGEKLKKIGQKIKNFFQKLVPQPE [CRAMP, mouse-derived peptide, 38 residues]” was tested, and the “prevention of PEDV-GFP entry into Vero cells, extended AMP panel, in words” value (shortened to “prevention”) (PEDV-GFP [1]) was “failed to neutralize PEDV”.

“Tamra-(ahx)-LLGDFFRKSKEKIGKEFKRIVQRIKDFLRNLVPRTES [FL LL-37]” was tested, and the “effect of fluorogenic labelling on antiviral activity” value (PEDV-GFP [1]; 1 and 5 µM co-incubated with PEDV, Vero cells 3 h, compared with unlabeled LL-37, Fig. S4) was “no effect on the antiviral activity”, the “cellular localization (confocal microscopy)” value (Vero cells; 1 and 5 µM, 1 and 3 h incubation, Vero cells, fixed, DAPI, Fig. 10B) was “predominant intracellular localization” and the “uptake or attachment to Vero cells (FC)” value (Vero cells; 3 h incubation with Vero cells, washing, FC fluorescence, two concentrations, unlabeled LL-37 as negative control, Fig. 10A) was “substantial concentration-dependent uptake or attachment”. For the same substance, the “uptake at 4 °C (FC)” value (Vero cells; Vero cells at 4 °C versus 37 °C, 1 and 5 µM, 30, 60, 180 min, Fig. S5) was “significant reduction in the uptake”.

With “RRWVQRWIRRWRKVAAARRWVQRWIRRWRPKV [CR-174, non-naturally occurring synthetic (designed) AMP]” the “prevention” value (PEDV-GFP [1]) was “unsuccessful in significantly preventing PEDV-GFP entry”.

For “PIRNWWIRIWEWLNGIRKRLRQRSPFYVRG HLNVTSTPQP (PIRNWWIRIWEWLNGIRKRLRQRSPFYVRGHLNVTSTPQP) [CATH-B1, chicken cathelicidin, 40 residues]”, the “virus infectivity, peptide pre-incubated with beads before PEDV introduction” value (PEDV [2]; Capto Core 700 beads, Vero cells) was “minimal effects on virus infectivity”, the “virus infectivity, peptide incubated with PEDV without beads” value (PEDV [2]; no Capto Core 700 beads, Vero cells) was “a decrease in virus infectivity” and the “antiviral activity when peptide is combined with virus and beads” value (PEDV [2]; peptide + PEDV, then Capto Core 700 beads 1 h at 4 °C, supernatant applied to Vero cells) was “remained unchanged”. The “virus aggregation (TEM)” value (PEDV [3]) was “extensive virus aggregation”, the “effect on virus morphology / membrane (TEM)” value (PEDV [3]) was “significant membrane damage” and the “antiviral activity in pre-incubation assay, in words” value (PEDV-GFP [4]) was “strong activity only at 10 μM”. The “percentage of GFP-positive cells (FC), co-incubation” value (PEDV-GFP [5]; 10 µM peptide, PEDV-GFP MOI=0.3, 2 h co-incubation then 24 h, no-peptide control approximately 35%, three independent experiments in duplicate, Fig. 3A) was 1–2%, the “infected cells by fluorescent microscopy, co-incubation” value (PEDV-GFP [5]; PEDV-GFP MOI=0.3, 5 and 10 µM peptide, 2 h co-incubation then 24 h, compared to control without peptide, Fig. 2B) was “reduced numbers of infected cells” and the “antiviral effect at MOI=1, in words” value (PEDV [6]) was “diminished as the MOI increased”.

In the case of “GRFRRLRKKTRKRLKKIGKVLKWIPPIVGSIPLGCG [PMAP-36, porcine cathelicidin, 36 residues]”, the “effect on virus morphology / membrane (TEM)” value (PEDV [3]) is reported as “structure remained unchanged”.

For “RRWVQRWIRWVQRWVR [CR-165, non-naturally occurring synthetic (designed) AMP]”, the “prevention” value (PEDV-GFP [1]) was “unsuccessful in significantly preventing PEDV-GFP entry”.

In the case of “RIIDLLWRVRRPQKPKFVTVWVR [PMAP-23, porcine cathelicidin, 23 residues]”, the “effect on virus morphology / membrane (TEM)” value (PEDV [3]) is reported as “structure remained unchanged”.
